The subject of one data set is human THP-1 cells. The data set is described as follows: ApoA1 cholesterol efflux screen in THP-1 cells. It is filed as cell-based. Conditions: 50 μM; THP-1 cells incubated with ApoA1. As for the experimental part: Human THP-1 cells were incubated with ApoA1 in the presence of linoleic acid or several different fatty acid derivatives (50 μM) in a blinded manner, and resulting cholesterol efflux was measured (FIG. 9) as previously described (PMID: 26879139).

A short description of data set [1]: Incubation under esterification conditions (glycerol on silica gel, 3 days), LC-MS. In kind it is physicochemical. Conditions: for esterification with glycerol: free acid in ether with glycerol-coated silica gel, 3 days; for internal lactonization: under the esterification conditions. As for the experimental part: • A: 10 mM NH4OAc, pH 7.4 • B: Acetonitrile+0.1% formic acid • 0-1.50 min: 5% B • 1.50-2 min: 5-90% B • 2-10 min: 90% B • 10.01-15 min: 5% B • DAD1 254 nm • DAD2 215 nm • Agilent Zorbax XDB-C18 5 μm C18 50×2.0 mm • 0.4 ml/min MS Parameters: Agilent 6120 with Electrospray Ionization • Drying gas flow: 11.0 L/min • Nebulizer pressure: 40 psig • Drying gas temperature: 350 C • Positive capillary voltage: 4000 V • Negative capillary voltage: 3000 V
Approximately 30 mg of silica gel was added to 25 mg of glycerol, and it was then vortexed to coat all of the silica with glycerol, until the admixture was free-flowing. Between 5-10 mg of this material was added to a solution of the free acid in ether, and it was vortexed briefly. The reaction was left for 3 days, then filtered and evaporated under nitrogen. The residue was redissolved in ethanol and analyzed by LC-MS, in both positive and negative modes.

Data set [2] concerns adult rat dorsal root ganglia (DRG) neurons. The experiment in a line: Ex vivo CGRP release assay in adult rat sensory neuronal cultures. The following applies: 1 μM; for capsaicin-evoked CGRP release: 30 nM capsaicin; for low-pH-evoked CGRP release: buffer pH adjusted to 6.0. It is filed as cell-based. As for the experimental part: For release experiments, the work was approved by the Animal Care and Use Committee at Indiana University School of Medicine, Indianapolis, IN. Adult rat sensory neuronal cultures were prepared as previously described (Burkey, Hingtgen, and Vasko, Methods in molecular medicine 99, 189, 2004; Kelley et al., PloS one 9, e106485, 2014). Cells were maintained for 10-12 days in F-12 media (Invitrogen, Carlsbad, CA) supplemented with 10% horse serum, 2 mM glutamine, 100 μg/ml normocin™, 50 μg/ml penicillin, 50 μg/ml streptomycin, 50 μM 5-fluoro-2′-deoxyuridine (Invitrogen), 150 μM uridine, and 30 ng/ml of NGF (Harlan Bioproducts for Science, Inc. Indianapolis, IN) in 3% CO2 at 37° C. On the day of the release experiments, cultures were washed with HEPES buffer (25 mM HEPES, 135 mM NaCl, 3.5 mM KCl, 2.5 mM CaCl2, 1 mM MgCl2, 3.3 mM D-glucose, and 0.1% bovine serum albumin, pH 7.4 and maintained at 37° C. Cultures were then incubated with 0.4 ml of the same buffer in the absence or presence of drugs. Basal release was determined by exposing the cells to HEPES buffer alone for 10 min, then to buffer in the presence of mediators for 10 min to ascertain if the compounds stimulated release. Cultures were then exposed to buffer containing 30 nM capsaicin or buffer with the pH adjusted to 6.0 in the absence or presence of mediators. Cells then were re-exposed to HEPES buffer without drugs for a 10 min incubation to reestablish basal release. After each incubation, the buffer was removed to measure the amount of CGRP using radioimmunoassay as previously described (Chen et al., Peptides 17, 31, 1996). At the end of each release experiment, cells were hypotonically lysed by exposing the cultures to 0.1 M HCl for 10 min and an aliquot taken to measure total CGRP content in the cultures using radioimmunoassay. […] Release data are presented in fmol/well of cell/10 min from three independent experiments from separate harvests. Statistical analysis was performed using ANOVA with Tukey's post hoc test.

The next data set concerns female mice (C57BL/6J). The experiment in a line: Pruriceptive (itch) behavior, scratching bouts after intradermal injection into nape of neck. The following applies: for itch-related scratching behavior compared to vehicle: 100 μg (mixture 100 μg of each) intradermal, n=6-8 per group, 30 minutes; for onset of scratching responses (significantly greater than vehicle) / time of maximum scratching response: 9K-12,13E-LA 100 μg, histamine 50 μg; for scratching bouts compared to vehicle, pilot testing: n=3 per group, first 30 minutes after intradermal injection. It is filed as in vivo, mouse. As for the experimental part: Hydroxy- and keto-epoxide derivatives of LA (100 μg) or histamine (50 μg) were injected intra-dermally into the nape of neck of the female mice (C57BL/6J from Jackson Laboratory). LA derivatives (9-keto-12,13-epoxy-(10E)-octadecenoate or 13-keto-9,10-epoxy-(11E)-octadecenoate) were injected independently, and in combination (9-keto-12,13-epoxy-(10E)-octadecenoate plus 13-keto-9,10-epoxy-(11E)-octadecenoate (100 μg of each)). Pruriceptive behavior was quantified as the number of scratching bouts assessed over 30 minutes, as previously described (Mishra and Hoon, Science 340, 968, 2013).

Data set [3] relates to normal mice or a mast cell knock-out mouse. The experiment in a line: Itch-related scratching in normal and mast cell knock-out mice. It is filed as in vivo. The following applies: 100 μg intradermal; 30 minutes. As for the experimental part:
The fatty acid derivative 9K-12,13E-LA (100 μg) was injected intra-dermally into the nape of neck of normal mice or a mast cell knock-out mouse (FIG. 8) in a blinded manner. Pruriceptive behavior was quantified as the number of scratching bouts assessed over 30 minutes, as previously described (Mishra and Hoon, Science 340, 968, 2013).

The test system of data set [4] is murine trigeminal sensory neurons. The data set is described as follows: Ca2+ responses in cultured trigeminal sensory neurons. It is filed as cell-based, mouse. The following applies: FIG. 7B. As for the experimental part: Additionally, murine trigeminal sensory neurons were isolated and cultured in vitro. Fatty acid derivatives were applied to the cultured neurons and any resulting Ca^2+ response was measured in a blinded manner. The assayed compounds include: 11H-12,13E-LA (Compound 1), 11K-12,13E-LA (Compound 2), 11H-9,10E-LA (Compound 3), and 11K-9,10E-LA (Compound 4).

The test system of data set [5] is freshly isolated human PBMCs. The experiment in a line: ApoA1 cholesterol efflux screen in freshly isolated PBMCs. It is filed as cell-based. The following applies: 50 μM.
The subject of data set [6] is tumor necrosis factor (TNF)-alpha secretion, human PBMCs. The data set is described as follows: PBMC cytokine secretion (ELISA): TNF-alpha. In kind it is cell-based. The following applies: 100 μM, 24 hours. As for the experimental part:
(§1) Freshly isolated human PBMCs were pre-incubated (FIGS. 11A and 11C) or not (FIGS. 11B and 11D) with LPS, and then incubated with ferulic acid (“FA,” 100 μM) and 11H-12,13E-LA, 11K-12,13E-LA, PBS, or LPS alone for 24 hours (blinded). Then, the medium concentration of TNF-alpha (FIGS. 11A and 11B) or […] (FIGS. 11C and 11D) was measured using enzyme-linked immunosorbent assay.
On the technique in general: An ELISA detects its analyte on a solid surface through an enzyme-linked reagent.

Data set [7] relates to interleukin (IL)-1, human PBMCs. The experiment in a line: PBMC cytokine secretion (ELISA): IL-1. It is filed as cell-based. The following applies: 100 μM; with or without LPS; 24 hours. As for the experimental part: as §1
In the next data set the test system is male Sprague-Dawley rats. The experiment in a line: Nociceptive (pain) behavior after intradermal hindpaw injection. In kind it is in vivo, rat. As for the experimental part:
11-hydroxy-12,13-trans-epoxy-(9Z)-octadecenoate (30 μg) was injected intradermally into the hindpaw of male Sprague-Dawley rats. Baseline measurements were taken for all tests prior to injection. A-delta and C-fiber mediated hindpaw withdrawal responses were measured as previously described (Mitchell et al., Pain 155, 733, 2014). Briefly, by stimulation of the plantar surface of the paw with a 100 ms laser pulse, producing a rapid withdrawal response. Laser pulses were delivered by an infrared diode laser (LASS-10 M; Lasmed, Mountain View, CA, USA) and calibrated to 3500 mA at 0.5 mm diameter, and delivered from 1 cm distance, C-fiber mediated responses were measured by delivery of a slow temperature ramp to the plantar surface of the hindpaw, with stimulus termination by voluntary withdrawal of the paw. The laser stimulus was adjusted to result in an approximately 10 second withdrawal latency (1000 mA, 13 cm distance).

On to “9-hydroxy-octadecadienoic acid [reference compound]”, for which the “ApoA1-mediated monocyte cholesterol efflux” value with human THP-1 cells was “increased”.
For `CC/C=C\C/C=C\C/C=C\C/C=C\C/C=C\C=C\C(O)CC(C)(C)C(=O)O` (centres unmarked) [2,2-dimethyl-4-hydroxy-DHA], in data set [1], the esterification with glycerol result was “resistant to esterification, including internal lactonization” and the internal lactonization result is recorded as “did not lactonize”.
Consider `CCCCCC(O)/C=C/C1OC1CCCCCCC(C)(C)C(=O)O` (stereo not drawn) [2,2-dimethyl-13-hydroxy-9,10-trans-epoxy-(11E)-octadecenoic acid], for which the esterification with glycerol entry in data set [1] is “resistant to esterification”.
As to `CC/C=C\C/C=C\C/C=C\C/C=C\C/C=C\C=C\C(O)CC(C)C(=O)O` (centres unmarked) [2-methyl-4-hydroxy-DHA], in data set [1], the esterification with glycerol entry was “resistant to glycerol esterification” and the internal lactonization entry was “competitive lactonization”.
As for `CC/C=C\C/C=C\C/C=C\C/C=C\C/C=C\C=C\C(O)CCC(=O)O` (centres unmarked) [4-hydroxy-DHA, reference compound], in data set [1], the internal lactonization result is reported as “rapidly undergoes internal lactonization”.
Regarding `CCCCCC1OC1/C=C/C(O)CCCCCCCC(=O)O` (stereo not drawn) [9H-12,13E-LA, 9-hydroxy(H)-12,13-trans-epoxy-(E)-octadecenoate], in data set [2], the “capsaicin-evoked CGRP release” value is “Neither 9H-12,13E-LA, nor any of the tested keto-epoxy-octadecenoates, augmented” and the “low-pH-evoked CGRP release” value is listed as “Neither 9H-12,13E-LA, nor any of the tested keto-epoxy-octadecenoates, augmented”.
With `CCCCCC1OC1/C=C/C(=O)CCCCCCCC(=O)O` (stereo not drawn) [9K-12,13E-LA, 9-keto(K)-12,13-trans-epoxy-(E)-octadecenoate], in the data set on female mice (C57BL/6J), the “itch-related scratching behavior compared to vehicle” value was “induced itch-related scratching behavior”; the “onset of scratching responses (significantly greater than vehicle)” value is on record as “slower onset”; the “time of maximum scratching response” value was in the range of 10 to 15 min; the “scratching bouts compared to vehicle, pilot testing” value is recorded as “appeared to increase scratching bouts”. For the same molecule, in data set [3], the “scratching responses in mast cell knockout mice” value was “increased scratching responses” and the “scratching responses in wild type mice” value is given as “increased scratching responses”.
As to `CCCCC/C=C\C(O)C1OC1CCCCCCCC(=O)O` (stereo not drawn) [11H-9,10E-LA, 11-hydroxy(H)-9,10-trans-epoxy-(E)-octadecenoate], in [2], the “capsaicin-evoked CGRP release” value was “significantly augmented” and the “low-pH-evoked CGRP release” value is “significantly augmented”. The “number of trigeminal cells responding, concentration-response” value in data set [4] was “increase in the number of cells responding”.
For the molecule `CCCCCC1OC1C(=O)/C=C\CCCCCCCC(=O)O` (stereo not drawn) [11K-12,13E-LA, 11-keto(K)-12,13-trans-epoxy-(E)-octadecenoate], the “ApoA1-mediated monocyte cholesterol efflux” value (in the data set with human THP-1 cells; in data set [5]) was “inhibited” throughout. In [6] (LPS pre-incubation), the “LPS-induced TNF-alpha secretion” value is “inhibits”. For the same molecule, in [6] (no LPS), the “native TNF-alpha secretion” value is listed as “inhibits”. Besides, the IL-1 secretion result in data set [7] is recorded as “has no effect”.
Consider `CCCCCC(O)/C=C/C1OC1CCCCCCCC(=O)O` (stereo not drawn) [13H-9,10E-LA, 13-hydroxy(H)-9,10-trans-epoxy-(E)-octadecenoate], for which, in data set [2], the “capsaicin-evoked CGRP release” value is “had no effect” and the “low-pH-evoked CGRP release” value is recorded as “significantly augmented”.
In the case of `CCCCCC(=O)/C=C/C1OC1CCCCCCCC(=O)O` (stereo not drawn) [13K-9,10E-LA, 13-keto(K)-9,10-trans-epoxy-(E)-octadecenoate], in the data set on female mice (C57BL/6J), the “itch-related scratching behavior compared to vehicle” value is listed as “no response” and the “scratching bouts compared to vehicle, pilot testing” value was “appeared to increase scratching bouts”.
As for `CCCCC/C=C\C/C=C\CCCCCCCC(=O)O` [Linoleic acid, reference compound], the “ApoA1-mediated monocyte cholesterol efflux” value in the data set on human THP-1 cells is given as “increased cholesterol efflux”.
For the molecule `CCCCC[C@H](O)/C=C/[C@H]1[C@H](O)CC(=O)[C@@H]1C/C=C\CCCC(=O)O` [PGE2, prostaglandin E2, reference compound], the “direct stimulation of CGRP release” value in data set [2] (neutral pH) is given as “neither PGE2 nor any of the other tested compounds directly stimulated”. In data set [2], the “capsaicin-evoked CGRP release” value is “significantly augmented” and the “low-pH-evoked CGRP release” value is “significantly augmented”. The “proportion of withdrawal responses following Aδ fiber laser stimulation” value with male Sprague-Dawley rats (after intradermal hindpaw injection) was “significantly enhanced”. The “decrease of C-fiber withdrawal latencies” value in the data set with male Sprague-Dawley rats (after intradermal hindpaw injection (11H-12,13E-LA 30 μg), versus vehicle) came to 46%.
As for `NCCc1c[nH]cn1` [histamine, reference compound], in the data set with female mice (C57BL/6J), the “onset of scratching responses (significantly greater than vehicle)” value was no more than 5 min and the “time of maximum scratching response” value fell in the range of 5 to 10 min.

The record behind these values is patent publication US12479812B2, “Fatty acid derivatives and their use” (THE UNITED STATES OF AMERICA, as represented by the …, priority 2017, dated 2025).
